The supplement of paper PMC10307832

Legend:
Test in all cases: relative viability (nuclei count vs DMSO), 5 days (fraction); higher = more cells survive
Erlotinib + Luminespib = compound: C#Cc1cccc(Nc2ncnc3cc(OCCOC)c(OCCOC)cc23)c1 [Erlotinib] + CCNC(=O)c1noc(-c2cc(C(C)C)c(O)cc2O)c1-c1ccc(CN2CCOCC2)cc1 [Luminespib] (partner 0.01 µM)
Summary of the method: (§1)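 Medians of duplicate plates are given as relative viability. That measure is the nuclei count in treated wells divided by the count in vehicle wells. Counts were taken on 4× images of lung cancer cell lines in 1536-well plates, 5 days after pin-tool dosing the day after seeding with one drug alone or a fixed anchor-drug dose plus five library-drug doses (not always all listed) in √10 steps.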

Erlotinib + OSI-027 = compound: C#Cc1cccc(Nc2ncnc3cc(OCCOC)c(OCCOC)cc23)c1 [Erlotinib] + COc1cccc2cc(-c3nc([C@H]4CC[C@H](C(=O)O)CC4)n4ncnc(N)c34)[nH]c12 [OSI-027] (partner 0.5 µM)
Summary of the method: as §1

Erlotinib + Lapatinib = compound: C#Cc1cccc(Nc2ncnc3cc(OCCOC)c(OCCOC)cc23)c1 [Erlotinib] + CS(=O)(=O)CCNCc1ccc(-c2ccc3ncnc(Nc4ccc(OCc5cccc(F)c5)c(Cl)c4)c3c2)o1 [Lapatinib] (partner 2 µM)
Summary of the method: as §1

AT9283 + Palbociclib = compound: O=C(Nc1c[nH]nc1-c1nc2ccc(CN3CCOCC3)cc2[nH]1)NC1CC1 [AT9283] + CC(=O)c1c(C)c2cnc(Nc3ccc(N4CCNCC4)cn3)nc2n(C2CCCC2)c1=O [Palbociclib] (partner 0.5 µM)
Summary of the method: as §1

AT9283 + Bortezomib = compound: O=C(Nc1c[nH]nc1-c1nc2ccc(CN3CCOCC3)cc2[nH]1)NC1CC1 [AT9283] + CC(C)C[C@H](NC(=O)[C@H](Cc1ccccc1)NC(=O)c1cnccn1)B(O)O [Bortezomib] (partner 0.002 µM)
Summary of the method: as §1

Cell Line | relative viability (Erlotinib + Luminespib; first compound 0.02 µM) | relative viability (Erlotinib + Luminespib; first compound 0.2 µM) | relative viability (Erlotinib + Luminespib; first compound 0.6325 µM) | relative viability (Erlotinib + Luminespib; first compound 2 µM) | relative viability (Erlotinib + OSI-027; first compound 0.02 µM) | relative viability (Erlotinib + OSI-027; first compound 0.2 µM) | relative viability (Erlotinib + OSI-027; first compound 0.6325 µM) | relative viability (Erlotinib + OSI-027; first compound 2 µM) | relative viability (Erlotinib + Lapatinib; first compound 0.02 µM) | relative viability (Erlotinib + Lapatinib; first compound 0.2 µM) | relative viability (Erlotinib + Lapatinib; first compound 0.6325 µM) | relative viability (Erlotinib + Lapatinib; first compound 2 µM) | relative viability (AT9283 + Palbociclib; first compound 0.003 µM) | relative viability (AT9283 + Palbociclib; first compound 0.03 µM) | relative viability (AT9283 + Palbociclib; first compound 0.09487 µM) | relative viability (AT9283 + Palbociclib; first compound 0.3 µM) | relative viability (AT9283 + Bortezomib; first compound 0.003 µM) | relative viability (AT9283 + Bortezomib; first compound 0.03 µM) | relative viability (AT9283 + Bortezomib; first compound 0.09487 µM) | relative viability (AT9283 + Bortezomib; first compound 0.3 µM)
EKVX | 0.833 | 0.615 | 0.444 | 0.207 | 0.679 | 0.506 | 0.34 | 0.187 | 0.206 | 0.178 | 0.192 | 0.186 | 0.387 | 0.368 | 0.274 | 0.179 | 0.996 | 0.652 | 0.636 | 0.351
COR-L23 | 0.686 | 0.637 | 0.693 | 0.588 | 0.87 | 0.879 | 0.721 | 0.512 | 0.944 | 0.979 | 1.16 | 0.96 | 0.286 | 0.141 | 0.11 | 0.121 | 1.05 | 0.664 | 0.23 | 0.152
NCI-H2228 | 0.151 | 0.131 | 0.149 | 0.121 | 0.643 | 0.537 | 0.525 | 0.366 | 0.946 | 1.31 | 1.31 | 0.891 | 0.588 | 0.492 | 0.351 | 0.149 | 1.04 | 0.529 | 0.118 | 0.176
NCI-H647 | 0.218 | 0.119 | 0.142 | 0.0816 | 0.594 | 0.606 | – | 0.449 | 1.24 | 1.11 | 1.09 | 0.942 | 0.395 | 0.363 | 0.126 | 0.131 | 0.822 | 0.145 | 0.13 | 0.0938
NCI-H1651 | 0.883 | 0.837 | 0.817 | 0.746 | 0.628 | 0.698 | – | 0.482 | 0.906 | 0.693 | 1.02 | 0.768 | 0.476 | 0.502 | 0.534 | 0.237 | 0.914 | 0.897 | 0.902 | 0.618
NCI-H1993 | 0.812 | 0.611 | 0.566 | 0.508 | 0.6 | 0.534 | 0.555 | 0.699 | 0.961 | 0.795 | 0.698 | 0.827 | 0.597 | 0.665 | 0.534 | 0.34 | 1.31 | 0.997 | 0.576 | 0.504
HCC-827 | 0.238 | 0.218 | 0.211 | 0.182 | 0.411 | 0.15 | 0.112 | 0.126 | 0.239 | 0.163 | 0.201 | 0.171 | 0.478 | 0.428 | 0.272 | 0.174 | 1.03 | 0.678 | 0.747 | 0.568
SK-LU-1 | 0.21 | 0.208 | 0.188 | 0.202 | 0.305 | 0.369 | 0.302 | 0.253 | 0.974 | 0.933 | 0.995 | 0.869 | 0.416 | 0.373 | 0.279 | 0.283 | 1.21 | 1.02 | 0.646 | 0.279
BEN | 0.369 | 0.34 | 0.442 | 0.693 | 0.334 | 0.301 | 0.317 | 0.304 | 0.689 | 0.802 | 1.03 | 0.735 | 0.458 | 0.456 | 0.412 | 0.356 | 0.688 | 0.739 | 0.242 | 0.27
ABC-1 | – | 0.684 | 0.771 | 0.601 | 0.582 | 0.386 | 0.361 | 0.346 | 1.26 | 1.25 | 1.3 | 0.971 | 0.664 | 0.381 | 0.295 | 0.325 | 1.05 | 0.261 | 0.117 | 0.283
H3255 | 0.768 | 0.531 | 0.326 | 0.295 | 0.638 | 0.345 | 0.207 | 0.202 | 0.323 | 0.259 | 0.253 | – | 0.337 | 0.316 | 0.323 | 0.284 | 0.632 | 0.719 | 0.542 | 0.172
NCI-H1437 | 1.15 | 1.18 | 1.1 | 1.03 | 0.856 | 0.919 | 0.832 | 0.716 | 0.788 | 0.812 | 1 | 0.726 | 0.319 | 0.354 | 0.206 | 0.193 | 0.496 | 0.398 | 0.175 | 0.164
HCC-44 | 0.912 | 1.02 | 1.62 | 1.03 | 0.505 | 0.571 | 0.412 | 0.435 | – | 1.09 | 1.03 | 0.928 | 0.992 | 1 | 0.557 | 0.698 | 0.814 | 0.833 | 0.548 | 0.399
CAL-12T | 0.3 | 0.32 | 0.377 | 0.226 | 0.672 | 0.47 | 0.219 | 0.26 | 0.815 | 0.704 | 0.68 | 0.543 | 0.543 | 0.257 | 0.165 | 0.217 | 0.89 | 0.896 | 0.547 | 0.212
NCI-H23 | 0.218 | – | 0.202 | 0.217 | 0.769 | 0.519 | 0.509 | 0.407 | 1.29 | 0.993 | 1.27 | 0.977 | 0.496 | 0.454 | 0.417 | 0.243 | 0.852 | 1.01 | 0.557 | 0.236
NCI-H596 | 1.07 | 0.848 | 0.893 | 0.878 | 0.675 | 0.528 | 0.537 | 0.408 | – | 1 | 0.998 | 1.01 | – | – | – | – | 0.999 | 1.14 | 0.947 | 0.772
